This passage reports TGI and GI50 results from PubChem BioAssay (NCI).

Molecules are shown by their SMILES.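 Tested at 5 concentrations; 48 h exposure; 96-well plates; endpoints linearly interpolated, else capped at highest concentration. GI50 marks 50% less growth. At the TGI there is no net growth.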 Some results are limits rather than exact numbers.

Some test systems named below: UO-31 renal; UACC-257 melanoma; ACHN renal; IGROV1 ovarian; M14 melanoma; SN12C renal; UACC-62 melanoma; RPMI-8226 leukemia; HL-60(TB) leukemia; T-47D breast.
Common to all, as to assay: NCI anticancer screen, dose series, 48 h

In the case of `O=C(NC(=Nc1ccccc1)SCSC(=Nc1ccccc1)NC(=O)c1ccco1)c1ccco1`, the TGI with UO-31 renal, with UACC-257 melanoma, in the test on ACHN renal, in the test with IGROV1 ovarian, in the test on M14 melanoma and in the test with SN12C renal was above 100 µM each time. In addition, the TGI in the test on UACC-62 melanoma and in the test on RPMI-8226 leukemia was above 100 µM in each case.
As to `CCc1ccccc1NC(=O)C(=O)C(C#N)c1ccccc1Cl` (stereo unspecified), the TGI in the test on UO-31 renal, in the test on UACC-257 melanoma, in the test with ACHN renal, in the test on IGROV1 ovarian, in the test on M14 melanoma and in the test with SN12C renal was above 100 µM throughout. In addition, the TGI in the test on UACC-62 melanoma, with HL-60(TB) leukemia and in the test on RPMI-8226 leukemia was above 100 µM throughout.
`O=C1C=C(Nc2ccccc2C(=O)CC(=O)C(=O)Nc2ccc(Cl)cc2)c2ccccc2C1=O`: the TGI was 65.6 µM with UO-31 renal; 21.7 µM in the test with UACC-257 melanoma; 55.1 µM in the test on ACHN renal; above 88.5 µM in the test with IGROV1 ovarian; 24.1 µM with M14 melanoma; 26 µM in the test on SN12C renal. The TGI is 29.8 µM in the test with UACC-62 melanoma, above 100 µM in the test with HL-60(TB) leukemia and above 33.2 µM with RPMI-8226 leukemia.
For the compound `O=C(COc1ccccc1Cl)N1N=C(c2ccccc2)CC1(O)c1ccccc1` (stereo unspecified), the TGI in the test on UO-31 renal turned out to be 35.9 µM; in the test with UACC-257 melanoma it was 45.2 µM; in the test on ACHN renal it was 55.7 µM; in the test on IGROV1 ovarian it was 55.7 µM; with M14 melanoma, 31.9 µM; in the test with SN12C renal, 25.6 µM. For the same compound, the TGI in the test with UACC-62 melanoma was 33.5 µM; in the test with HL-60(TB) leukemia, 30.6 µM; in the test with RPMI-8226 leukemia, 32.9 µM.
For `O=C1/C(=C/c2ccc([N+](=O)[O-])s2)Oc2cc(Cl)ccc21`, the GI50 in the test on UO-31 renal was 0.317 µM; with ACHN renal, 0.475 µM; in the test with IGROV1 ovarian, 0.941 µM; in the test on SN12C renal it was 2.36 µM; in the test with UACC-62 melanoma, 0.998 µM; in the test with T-47D breast, 1.5 µM. Further, in the test with RPMI-8226 leukemia, the GI50 is 0.382 µM. The TGI is 1.22 µM in the test with UO-31 renal; 1.84 µM with ACHN renal; 3.61 µM in the test on IGROV1 ovarian; above 100 µM with SN12C renal; 3.14 µM in the test on UACC-62 melanoma; above 100 µM with T-47D breast. Also, in the test on RPMI-8226 leukemia, the TGI is 2.23 µM.
Take `COc1ccc(Nc2nc3cc(C(F)(F)F)ccc3nc2-c2ccccc2)cc1OC`: the TGI in the test on UO-31 renal was above 100 µM; in the test on UACC-257 melanoma it was 99.4 µM; in the test with ACHN renal it was above 100 µM; in the test on IGROV1 ovarian, above 100 µM; with M14 melanoma, above 100 µM; with SN12C renal, above 100 µM. Further, the TGI with UACC-62 melanoma was above 100 µM.
`c1ccc2c(c1)SC(=C1Sc3ccccc3S1)S2`: the TGI with UO-31 renal, in the test with ACHN renal, in the test on IGROV1 ovarian, with M14 melanoma, with SN12C renal and with UACC-62 melanoma was above 100 µM in each case.
For `OCC1OC2c3ccccc3COC2C1OCc1ccccc1` (stereo unspecified), the TGI in the test on UO-31 renal, in the test with UACC-257 melanoma, with ACHN renal, in the test with IGROV1 ovarian, in the test on M14 melanoma and in the test with SN12C renal was above 100 µM each time. Further, the TGI in the test with UACC-62 melanoma and in the test on RPMI-8226 leukemia was above 100 µM each time.
On to `O=C1C(=c2ccc(=C3C(=O)c4ccc([N+](=O)[O-])cc4[N+]3=O)cc2)N([O-])c2cc([N+](=O)[O-])ccc21`, for which the GI50 in the test on UO-31 renal, with UACC-257 melanoma, in the test on ACHN renal, in the test on IGROV1 ovarian, in the test with M14 melanoma and with SN12C renal was above 100 µM in each case. Also, in the test on HL-60(TB) leukemia, the GI50 was above 100 µM. Further, the TGI in the test with UO-31 renal, with UACC-257 melanoma, in the test on ACHN renal, with IGROV1 ovarian, in the test on M14 melanoma and in the test with SN12C renal was above 100 µM throughout. The TGI in the test on HL-60(TB) leukemia is above 100 µM.
`[O-]/N=[N+](/[O-])C1CCCCC1=[N+]1CCOCC1` (stereo unspecified): the TGI in the test with UO-31 renal, in the test with UACC-257 melanoma, in the test with ACHN renal, in the test on M14 melanoma, with SN12C renal and with UACC-62 melanoma was above 100 µM throughout. In addition, the TGI with HL-60(TB) leukemia and with RPMI-8226 leukemia was above 100 µM throughout.
`COc1cccc(C=O)c1C(=O)c1cc(O)ccc1O`: the TGI is 33.6 µM in the test on UO-31 renal; 46.3 µM with UACC-257 melanoma; 31.1 µM in the test on ACHN renal; above 62.5 µM with IGROV1 ovarian; 35 µM with M14 melanoma; above 100 µM with SN12C renal. Further, the TGI with UACC-62 melanoma and in the test with HL-60(TB) leukemia was above 100 µM each time.
Turning to `Cc1cc(=O)[nH]c(CNC(=O)c2ccc3ccccc3c2)n1`, the TGI with UO-31 renal, with UACC-257 melanoma, with ACHN renal, with IGROV1 ovarian, in the test on M14 melanoma and with SN12C renal was above 100 µM in each case. Also, the TGI in the test on UACC-62 melanoma and with HL-60(TB) leukemia was above 100 µM throughout.
For `O=Cc1cccc2ccc3ccccc3c12`, the TGI with UO-31 renal was above 100 µM; in the test on UACC-257 melanoma, above 100 µM; in the test with ACHN renal, 83.8 µM; in the test with M14 melanoma, 49.4 µM; in the test on SN12C renal, 88.5 µM; with UACC-62 melanoma, 76 µM. The TGI with T-47D breast is 92.4 µM.
For `O=[N+]([O-])c1cc(-c2nc(=S)[nH][nH]2)ccc1O`, the TGI in the test with UO-31 renal, in the test with UACC-257 melanoma, in the test on ACHN renal, in the test on IGROV1 ovarian, in the test with M14 melanoma and in the test with SN12C renal was above 100 µM each time. Further, the TGI in the test with UACC-62 melanoma and with HL-60(TB) leukemia was above 100 µM throughout.
`COC(=O)c1cc(NC(=O)c2cc(NC(=O)c3cc([N+](=O)[O-])n(C)c3)cn2C)cn1C`: the GI50 was above 100 µM in the test on UO-31 renal; above 100 µM with UACC-257 melanoma; 2.53 µM in the test with ACHN renal; above 100 µM in the test with IGROV1 ovarian; 15.2 µM with M14 melanoma; above 100 µM in the test on SN12C renal. Moreover, the GI50 in the test on UACC-62 melanoma was 23.8 µM; in the test on T-47D breast, above 100 µM; with RPMI-8226 leukemia, above 100 µM. The TGI in the test on UO-31 renal was above 100 µM; in the test on UACC-257 melanoma, above 100 µM; with ACHN renal, 53.5 µM; with IGROV1 ovarian, above 100 µM; with M14 melanoma, above 100 µM; with SN12C renal, above 100 µM. Further, the TGI in the test with UACC-62 melanoma, in the test with T-47D breast and in the test on RPMI-8226 leukemia was above 100 µM in each case.
